The source of these data is patent US20070105839A1, “2, 4-Di (phenylamino) pyrimidines useful in the treatment of proliferative disorders” (priority 2003, published 2007).

Several values for one entry are separate records, joined by “and”; a condition that tells them apart may be missing. Equal entries are not always repeated. Where two headings read alike, the source gives them in different places.

Data set [1] has as its system human KARPAS-299 lympoma cell line. The data set can be described thus: Antiproliferative action in KARPAS-299 lymphoma cell line. As to conditions: KARPAS-299 cell line, same methodology as BaF3-NPM-ALK. In kind it is cell-based.
For data set [2], the system named is human NPM-ALK overexpressing murine BaF3 cells (BaF3-NPM-ALK). Kind of data set: Growth inhibition of BaF3-NPM-ALK cells (Yopro staining). The note with it: Mus musculus, 48 h, two days incubation. In kind it is cell-based. An excerpt:
The expression of NPM-ALK is achieved by transfecting the BaF3 cell line with an expression vector pCIneo™ (Promega Corp., Madison Wis., USA ) coding for NPM-ALK and subsequent selection of G418 resistant cells. Non-transfected BaF3 cells depend on IL-3 for cell survival. In contrast NPM-ALK expressing BaF3 cells (named BaF3-NPM-ALK) can proliferate in the absence of IL-3 because they obtain proliferative signal through NPM-ALK kinase. Putative inhibitors of the NPM-ALK kinase therefore abolish the growth signal and result in antiproliferaflve activity. The antiproliferative activity of putative inhibitors of the NPM-ALK kinase can however be overcome by addition of IL-3 which provides growth signals through an NPM-ALK independent mechanism. [for an analogous cell system using FLT3 kinase see E Weisberg et al. Cancer Cell; 1, 433-443 (2002). The inhibitory activity of the compounds of formula I is determined, briefly, as follows: BaF3-NPM-ALK cells (15 000/microtitre plate well) are transferred to 96-well microtitre plates. The test compounds [dissolved in dimethyl sulfoxide (DMSO)] are added in a series of concentrations (dilution series) in such a manner that the final concentration of DMSO is not greater than 1% (v/v). After the addition, the plates are incubated for two days during which the control cultures without test compound are able to undergo two cell-division cycles. The growth of the BaF3-NPM-ALK cells is measured by means of Yopro™ staining (T ldziorek et al. J. Immunol. Methods; 185:249-58 [1995]): 25 μl of lysis buffer consisting of 20 mM sodium citrate, pH 4.0, 26.8 mM sodium chloride, 0.4% NP40, 20 mM EDTA and […] to each well. Cell lysis was completed within 60 min at room temperature and total amount of Yopro bound to DNA was determined by measurement using the Cytofluor II 96-well reader (PerSeptive Biosystems) with the following settings: Excitation (nm) 485/20 and Emission (nm) 530/25.
IC50 values are determined by a computer-aided system using the formula: ICr50=[(ABStest−ABSstart)/(ABScontrol−ABSstart)]×100.

Data set [3] addresses T1, recombinant kinase domain of the ALK (Homo sapiens, UniProt Q9UM73).
T1 construct: using the recombinant kinase domain of the ALK
The data set can be described thus: Inhibition of ALK tyrosine kinase activity. In kind it is biochemical. As to conditions: each compound tested twice, once each with two different preparations of ALK. The method, then:
The inhibition of ALK tyrosine kinase activity is measured using known methods, for example using the recombinant kinase domain of the ALK in analogy to the VEGF-R kinase assay described in J. Wood et al. Cancer Res. 60, 2178-2189 (2000). The table below reports the IC50 values for several compounds of the present invention. Each compound is tested twice, once each with two different preparations of ALK.

Where [4] appears, read: with IL3, read-out: BaF3 NPM-ALK with IL3 IC50.
[5] abbreviates: without IL3, read-out: BaF3 NPM-ALK without IL3 IC50.

T1 sequence (Q9UM73 1116-1392 limits assumed): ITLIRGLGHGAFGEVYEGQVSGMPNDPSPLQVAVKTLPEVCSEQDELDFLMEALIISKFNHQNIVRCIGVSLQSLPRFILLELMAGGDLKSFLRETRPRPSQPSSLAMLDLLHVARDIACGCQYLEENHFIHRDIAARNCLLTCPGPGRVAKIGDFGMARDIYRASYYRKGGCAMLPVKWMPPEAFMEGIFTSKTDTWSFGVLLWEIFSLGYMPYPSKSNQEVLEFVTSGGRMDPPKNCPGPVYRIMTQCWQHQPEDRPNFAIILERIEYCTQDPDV

Regarding `COc1cc(Nc2nccc(Nc3cccc(C)c3S(N)(=O)=O)n2)cc(OC)c1OC` [Example 3, 2-methyl-6-[2-(3,4,5-Trimethoxy-phenylamino)-pyrimidin-4-ylamino]-benzenesulfonamide], the melting point lay within 72 to 75 °C.
For `CCCNS(=O)(=O)c1ccccc1Nc1ccnc(Nc2cc(OC)c(OC)c(OC)c2)n1` [Ex. 58], the half-inhibitory concentration (IC50) in data set [1] is 330 nM; in data set [2] (setting [4]), 2600 nM; in data set [2] (setting [5]), 560 nM; in data set [3] it was 46 nM and 90 nM.
With `COc1cc(Nc2nccc(Nc3ccccc3S(=O)(=O)N(C)C)n2)cc(OC)c1OC` [Ex. 56], the IC50 in data set [1] is 150 nM; in data set [2] (setting [4]), 2700 nM; in data set [2] (setting [5]), 410 nM; in data set [3], 180 nM and 86 nM.
With `CN(C)S(=O)(=O)c1ccccc1Nc1ccnc(Nc2cccc(OCCn3ccnc3)c2)n1` [Ex. 48], the half-inhibitory concentration (IC50) in data set [1] was 270 nM; in data set [2] (setting [4]) it was 1400 nM; in data set [2] (setting [5]), 550 nM; in data set [3], 48 nM and 83 nM.
